According to the METLIN SMRT retention time set (Domingo-Almenara et al. 2019):

Test: gradient 5% acetonitrile 3 min, to 50% in 2 min, to 85% in 15 min, held 3 min, 100 µL/min
Conditions: column: Zorbax Extend-C18 2.1 x 50 mm; eluents: water / acetonitrile, 0.1% formic acid
Summary of the method: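 Using water and acetonitrile that each contained 0.1% formic acid, mixtures of ~100 pure standards were separated at 100 μL/min on a Zorbax Extend-C18 column (2.1 × 50 mm, 1.8 μm). The HPLC fed a quadrupole time-of-flight mass spectrometer working in positive and negative ionization mode, with dead and dwell volumes of 40 μL and 900 μL. Data were acquired over 3 months. Retention time was read from computationally picked adduct peaks after manual inspection of each.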

Compound	RP-LC retention time [s]
Cc1cc(C)n(-c2ccnc(N3CCC(C(=O)NCCN4CCCC4)CC3)n2)n1	587
Nc1cc(C2CCN(C(=O)c3ccccc3Br)CC2)no1	676
COc1ccc(C(C)NC(=O)C2CCN(c3cnc4nccnc4c3)CC2)cc1OC (stereo not drawn)	664
O=C(CCS(=O)(=O)c1ccccc1)N1CCCc2ccccc21	779
Fc1ccc(OCc2nc(C3CCNC3)no2)cc1 (stereo not drawn)	626
COc1cc(C)c2c(c1C=O)Oc1c(c(C)c(O)c3c1C(O)OC3=O)OC2=O (stereo not drawn)	840
Cc1cnn(Cc2c(C(=O)N3C[C@@H](C(N)=O)[C@H](c4nc(C)no4)C3)noc2C)c1	590
Cc1cc(C)cc(S(=O)(=O)N2CCC(CN3CCCCCC3)CC2)c1	708
CC1CCN(C(=O)c2cc(S(=O)(=O)N3CCC(C(=O)N4CCCCC4)CC3)cn2C)CC1	796
O=C(NCc1cccs1)C1CN(S(=O)(=O)c2cccnc2)CC12CCCCC2 (stereo not drawn)	856
Cc1noc(C)c1CC(=O)NCCc1noc(C2CC2)n1	628
CCCNC(=O)C1CCCN(c2nc3ncn(CC(=O)Nc4ccc(F)c(F)c4)c(=O)c3s2)C1 (stereo not drawn)	708
CCOC(=O)c1c(S(=O)(=O)N2CCC(C(=O)Nc3ccc(C)cc3)CC2)c(C)n(C)c1C	886
COC(=O)c1c(C)[nH]c(C(=O)N2CCC(CC(=O)N(C)Cc3ccco3)CC2)c1C	728
Cc1ccc2nc(-c3ccc(Cl)cc3)c(Nc3ccc4c(c3)OCCO4)n2c1	735
COCc1nc2cccnc2n1C1CCN(C(=O)Nc2ccccc2C(=O)OC)CC1	784
NC(=O)c1n[nH]c2c1CCCCCC2	644
Cc1ccc(NS(=O)(=O)c2cc3c(s2)CCN(C(=O)C2CC2)C3)cc1C	861
COc1ccc(-c2noc(-c3nc(Cc4ccccc4)no3)n2)cc1OC	1100
O=S(=O)(c1ccc(Br)s1)N1CCN(S(=O)(=O)C2CC2)CC1	854
Cn1cc(CN2CCC(C(=O)NC3CCCCCC3)CC2)c2cc(Cl)ccc21	751
COc1ccc(NC(=O)N2CCN(c3nc4ccccc4n3C)CC2)cc1OC	610
CCOc1ccccc1-c1noc(Cn2cnc3c(cnn3-c3ccccc3)c2=O)n1	990

Compound	RP-LC retention time [s]
CCCN1C(=O)c2cc(C(=O)N3CCC(C)CC3)nn2CC1(C)C(=O)NC1CCCC1 (stereo not drawn)	817
COc1cccc(-c2noc(Cc3nnc(-c4cc(F)cc(F)c4)o3)n2)c1OC	968
O=C(c1cccc(-c2nccnc2N2CCCC2)c1)N1CCN(c2ccccc2)CC1	972
CCn1ncc(NC(=O)COc2ccccc2C)c(N2CCOCC2)c1=O	889
Cc1occc1C(=O)NC1CCc2nn(CC3CC3)c(=O)n2CC1 (stereo not drawn)	636
C[C@@H]1COCCN1c1cc(C2(S(C)(=O)=O)CC2)nc(-c2cccc3[nH]ccc23)n1	775
Cc1ccc(Nc2nc(C)cc(N3CCN(C(=O)C4CCCCC4)CC3)n2)cc1	734
O=S(=O)(c1ccc2c(c1)CCC2)N1CCC2(CC1)CC(Cc1nc(-c3cnccn3)no1)CCO2 (stereo not drawn)	1010
O=C(NCCCS(=O)(=O)N1CCN(c2ncccn2)CC1)C1CC1	608
COCCNC(=O)C1CCN(c2cnn(Cc3ccccc3)c(=O)c2)CC1	661
CCOc1ccc(NC(=O)N2CCN(c3cc(C)nc(N4CCCC4)n3)CC2)cc1	681
CC1CCN(S(=O)(=O)c2cccc(-c3nc(-c4ccccc4)no3)c2)CC1	1360
COc1ccc(-c2noc(-c3ccc(N4CCN(c5ccccn5)CC4)nc3)n2)cc1	764
COc1cccc(-c2nc(C3CCN(S(=O)(=O)c4ccc(C)c(F)c4)CC3)no2)c1	1170
CC(C)Cn1c(=O)c2cc(C(=O)N3CCSCC3)nn2c2ccccc21	955
COc1ccc(C(=O)N2CCC3(C2)C(=O)Nc2ccc(OC)cc23)c(OC)c1 (stereo not drawn)	692
COCCCNC(=O)C1CCN(C(=O)c2ncn3c2COC(c2ccc(OC)cc2)C3)CC1 (stereo not drawn)	651
Cc1ccccc1N1C[C@@]23C=C[C@@H](O2)[C@H](C(=O)OC(C)C)[C@@H]3C1=O	785
O=C(NCCc1ccccn1)C1CN(C(=O)c2cccs2)CC12CCCCC2 (stereo not drawn)	602
CC1CCC(NC(=O)C2CCN(C(=O)c3ncn4c3COC(c3ccccc3)C4)CC2)CC1 (stereo not drawn)	816
O=C(Cc1ccsc1)N1CCCn2nc(-c3ccc(Cl)cc3)cc2C1	931
CCSc1nnc(-c2nn(C)c3c2CN(S(=O)(=O)c2ccc(C)c(Cl)c2)CC3)n1CC	1050

Other lines, results leading:

RP-LC retention time [s]	Compound
924	Cc1noc(-c2ccc(OC3CN(C(=O)Cc4ccccc4)C3)cc2)n1
951	Cc1ccc(NC(=O)N2CCC(C(C)C(=O)Nc3ccc(Cl)cc3)CC2)cc1 (stereo not drawn)
812	COc1ccc(NC(=O)Cn2c(=O)n(-c3ccc(F)cc3)c(=O)c3c2cc(C)n3C)cc1
704	CCOc1ccc(CNC(=O)C2CCN(S(=O)(=O)c3cn(C(C)C)cn3)CC2)cc1OC
796	COc1ccc(OC)c(CNC(=O)Cc2nnc(-c3cccc(Br)c3)o2)c1
951	O=C(CN1C(=O)CCc2cc(Br)ccc21)N1CCN(c2ccccc2F)CC1
960	O=C(NCCC1CCN(S(=O)(=O)c2ccccc2)CC1)Nc1cc(F)ccc1F
912	CCCCc1c(-c2ccc(OC)cc2)[nH]c2nccnc12
741	CCOC(=O)c1cccc(NC(=O)Cn2c(=O)c(CCC(=O)NC)nc3ccccc32)c1
798	CCN1C(=O)CCc2cc(NC(=O)Cc3ccc(OC)c(Cl)c3)ccc21
634	COCCNC(=O)Cn1c(=O)n(-c2ccccc2)c2ncccc21
650	CCc1ccc(S(=O)(=O)Nc2ccc(N3CCCN(C)CC3)cc2C(=O)O)cc1
714	CCC(=O)N1CCc2cc(N3CC(C(=O)Nc4ccc(OC)cc4)CC3=O)ccc21 (stereo not drawn)
1150	Cc1cccc(C(=O)NCC2CCCN(S(=O)(=O)c3ccc4c(c3)CCCC4)C2)c1 (stereo not drawn)
899	Cc1ccc(N2CC(c3noc(-c4ccc5ccccc5n4)n3)CC2=O)cc1 (stereo not drawn)
836	Cc1noc(-c2ccc(OC3CN(C(=O)NCc4ccccc4)C3)cc2)n1
830	Cc1ccc(CNc2nnc(-c3nnc(C)o3)c3ccccc23)cc1
915	Cc1ccc2c(c1)C(C)(C)C(=O)N2CC(=O)NCc1ccc(F)cc1
1060	CN(C(=O)c1cc2c(=O)oc3ccccc3c2n1C)c1ccccc1F
890	O=C(NC1CCCC1)c1cc2n(n1)CCCN(Cc1ccc(Cl)cc1)C2=O
801	CCCCNC(=O)c1nc(Nc2ccccc2)c2ccccc2n1
674	CC(C)c1nc2cc3c(cc2n1CC(=O)Nc1ccccc1)OCCO3

RP-LC retention time [s]	Compound
751	Cc1ccc(CNS(=O)(=O)c2ccc3c(c2)CCCC(=O)N3)cc1
1000	COc1ccc(-n2c(=O)c3sccc3n(Cc3nc(-c4ccccc4C)no3)c2=O)cc1
1180	Cc1ccc(-c2csc(NC(=O)c3cccs3)n2)cc1C
735	O=C(NCc1cccnc1-c1ccc(F)cc1)c1ccc(Br)cc1
595	Cn1cc(CCN2CCC(C(=O)NCc3ccc(F)cc3)CC2)c2cccnc21
1270	Cc1ccc(NC(=O)c2cc(C(C)C)n3nccc3n2)c(F)c1
586	COc1cccc2cc(C(=O)NC3CNC(=O)C3)oc12 (stereo not drawn)
916	CC1Oc2ccc(S(=O)(=O)N3CCC(C(=O)Nc4ccc(C(C)C)cc4)CC3)cc2NC1=O (stereo not drawn)
618	O=C(NCc1cccc(C(F)(F)F)c1)c1ccc2c(c1)ncn2CCN1CCCC1
769	CCn1ccc2sc(C)c(C(=O)NCc3ccc4c(c3)OCO4)c2c1=O
744	CCNC(=O)c1ccc(-c2nc3cc(NS(=O)(=O)c4ccc(C(C)C)cc4)ccc3n2C)cc1
1230	COc1ccccc1NC(=O)CSc1nc2ccccc2c(=O)n1C1CCCCC1
626	CCOc1cc(C2c3c(n[nH]c3C)C(=O)N2C)ccc1O (stereo not drawn)
896	CCN1C(=O)c2cccnc2Sc2cc(NC(=O)c3ccc(C)c(F)c3)ccc21
1150	CCc1sc(NC(=O)c2cc3c([nH]c2=O)CC(C)(C)CC3=O)nc1-c1ccc(C)c(C)c1
1230	CCCCCn1c(=O)c2ccccc2n(Cc2nc(-c3ccc(OCC)c(OC)c3)no2)c1=O
923	Cc1nc(-c2cccs2)c(CCC(=O)Nc2ccccc2C(F)(F)F)s1
917	Cc1sc2ccn(CC(C)C)c(=O)c2c1C(=O)NCc1ccc(F)cc1
1220	CCCn1c(=O)c2cc(C(=O)Nc3cc(Cl)ccc3F)nn2c2ccccc21
797	CC(NC(=O)CN1C(=O)CCn2nc(-c3cn(C)c4ccccc34)cc21)c1ccc2c(c1)OCCO2 (stereo not drawn)
668	COc1ccc(-n2c(=O)n(C)c(=O)c3cc(C(=O)Nc4ccc(C(N)=O)cc4)cnc32)cc1
